Laboratory results published in patent US8323956B2, “Distal tip of biosensor transducer comprising enzyme for deamination” (Colorado State University Research Foundation, priority 2001, dated 2012).

Experiments:
[1] = molecular target: T1, LinB haloalkane dehalogenase (Sphingobium indicum, UniProt D4Z2G1); conditions: reported by Damborsky et al. 2001; cited from earlier work
T1 sequence (D4Z2G1 1-296): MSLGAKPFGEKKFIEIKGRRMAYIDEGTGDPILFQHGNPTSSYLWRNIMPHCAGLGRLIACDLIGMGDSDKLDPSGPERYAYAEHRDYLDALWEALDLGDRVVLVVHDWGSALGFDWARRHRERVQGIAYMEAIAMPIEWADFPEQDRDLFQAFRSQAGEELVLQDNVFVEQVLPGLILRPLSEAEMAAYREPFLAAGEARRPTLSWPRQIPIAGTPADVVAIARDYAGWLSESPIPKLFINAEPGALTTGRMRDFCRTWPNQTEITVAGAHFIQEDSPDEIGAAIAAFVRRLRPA

[2] = molecular target: T1, LinB haloalkane dehalogenase; experiment: LinB biosensor sensitivity for halogenated hydrocarbons
From the text: The haloalkane dehalogenase LinB was used to develop biosensors for several halogenated hydrocarbons.

E. coli pAQN (linB) = molecular target: T2, E. coli pAQN (linB) (Sphingobium indicum, UniProt D4Z2G1); experiment: Biosensor response to 1,2-dibromoethane measured repeatedly over 50 days; type: cell-based; conditions: 5 ppb of 1,2-dibromoethane, in more than 50 days
T2 construct: expressed in transfected cells; host or cells: E. coli carrying plasmid pAQN
Experimental: FIG. 17 depicts a biosensor response to 5 μg/L 1,2-dibromoethane using E. coli pAQN (linB) as the biocomponent, measured repeatedly over 50 days, according to an embodiment.
The release of a proton from the dehalogenation reaction is detected as a pH change at the end of the optical fiber, and thus as a change in fluorescence intensity (FIG. 14). Fiber optic biosensors for 1,2-dichloroethane (DCA), ethylene dibromide (EDB), atrazine, 1-chlorohexane and Lindane (γ-hexachlorocyclohexane) have been developed (Campbell, 1998; Das, N., Development and Characterization of a Biosensor for Atrazine in Groundwater, Chemical Engineering. 2000, Colorado State University: Fort Collins). These biosensors have linear response ranges over several orders of magnitude in concentration, and detection in the ppt (ng/L) range has been achieved (FIG. 15). […] This fact, and the stability of the enzymes, allows the biosensors to retain activity for many weeks. In one test (FIG. 16), the biosensor response to 5 ppb of 1,2-dibromoethane declined by only 20% in more than 50 days. Sensitive measurement is still possible even at the end of the test; only a recalibration is required.

melamine deaminase TriA = molecular target: T3, melamine deaminase TriA (Paracidovorax citrulli, UniProt Q9EYU0); experiment: TriA (melamine deaminase) biosensor response, cells in calcium alginate on pH-sensitive optical fiber; type: cell-based, Escherchia coli DH5α pJS3
T3 construct: expressed in transfected cells; host or cells: Escherichia coli DH5α pJS3
From the text: Cells of Escherchia coli DH5α pJS3 (Seffernick et al., J. Bact. 183 (8), 2405-2410, 2001) were immobilized in calcium alginate on the tip of an optical fiber coated with a PVA-fluoresceinamine conjugate, a pH-sensitive fluorophore. The plasmid pJS3 contains the gene triA, and thus the E. coli cells can express the melamine deaminase TriA, which catalyzes the cleavage of one of the amine groups. The products of this reaction are ammeline (2-hydroxy-4,6-diamino-s-triazine) and ammonia.
The release of ammonia led to an increase in pH on the tip of the optical fiber, which was detected as an increase in the fluorescence of fluoresceinamine (FIG. 21).
The melamine deaminase biosensor was also responsive to the related amine-containing chemical 2-chloro-4,6-diamino-s-triazine (CAAT) (Table 12 and FIG. 22).

T3 sequence (Q9EYU0 whole entry): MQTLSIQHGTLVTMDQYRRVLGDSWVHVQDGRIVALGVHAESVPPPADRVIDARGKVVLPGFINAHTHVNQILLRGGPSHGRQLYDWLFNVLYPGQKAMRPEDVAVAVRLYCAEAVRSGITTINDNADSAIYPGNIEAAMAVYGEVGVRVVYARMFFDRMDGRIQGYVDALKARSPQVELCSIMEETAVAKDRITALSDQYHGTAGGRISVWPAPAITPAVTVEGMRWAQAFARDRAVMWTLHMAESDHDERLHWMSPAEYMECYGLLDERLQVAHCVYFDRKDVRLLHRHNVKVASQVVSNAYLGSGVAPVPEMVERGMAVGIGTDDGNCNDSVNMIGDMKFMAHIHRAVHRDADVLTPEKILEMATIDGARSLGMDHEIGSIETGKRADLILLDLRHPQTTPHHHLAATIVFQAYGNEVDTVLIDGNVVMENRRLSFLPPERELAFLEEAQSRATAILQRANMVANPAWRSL

Row | Structure (SMILES) | LinB activity (% of 1-chlorobenzene rate) [1] | Biosensor sensitivity (ΔV/ppb analyte) [2] | decline of biosensor response (E. coli pAQN (linB)) | Response (count) (melamine deaminase TriA; 0.12 mg/L) | Response time (melamine deaminase TriA; 0.12 mg/L) | Response (count) (melamine deaminase TriA; 1.21 mg/L) | Response time (melamine deaminase TriA; 1.21 mg/L)
1 | BrCCBr [1,2-dibromoethane] | 355% | 0.29 ΔV/ppb analyte | 20% |  |  |  | 
2 | CCCCCCCl [1-chlorohexane] | 145% | 0.21 ΔV/ppb analyte |  |  |  |  | 
3 | Nc1nc(N)nc(Cl)n1 [CAAT, 2-chloro-4,6-diamino-s-triazine] |  |  |  | 150 count | 2 h | 800 count | 10 h
4 | Nc1nc(N)nc(N)n1 [Melamine, 2,4,6-triamino-1,3,5-triazine] |  |  |  | 1000 count | 20 h | 2700 count | 16 h
